Measured values from patent US10457687B2, “Aminoacid derivatives, a process for their preparation and pharmaceutical compositions containing them” (LES LABORATOIRES SERVIER, priority 2015, dated 2019).

Assays:
[1] = tested on: cleaved form of PARP in AMO-1 tumour cells; assay: Quantification of the cleaved form of PARP in vivo (AMO-1 xenograft, MSD ELISA); parameters: species or system mice (SCID strain); conditions: activation factor: cleaved PARP in treated mice / control mice, SCID mice, intraveinous or oral routes
Method: The ability of the compounds of the invention to induce apoptosis, by measuring cleaved PARP levels, is evaluated in a xenograft model of AMO-1 multiple myeloma cells. 1·10^7 AMO-1 cells are grafted sub-cutaneously into immunosuppressed mice (SCID strain). 12 to 14 days after the graft, the animals are treated by intraveinous or oral routes with the various compounds. After treatment, the tumour masses are recovered and lysed, and the cleaved form of PARP is quantified in the tumour lysates.
The quantification is carried out using the “Meso Scale Discovery (MSD) ELISA platform” test, which specifically assays the cleaved form of PARP. It is expressed in the form of an activation factor corresponding to the ratio between the quantity of cleaved PARP in the treated mice divided by the quantity of cleaved PARP in the control mice.

[2] = tested on: H929 multiple myeloma tumour line; assay: In vitro cytotoxicity, MTT assay, 48 hours; type: cell-based; conditions: H929 cells, 48 hours exposure, cell viability
Method: The cytotoxicity studies were carried out on the H929 multiple myeloma tumour line.
The cells are distributed onto microplates and exposed to the test compounds for 48 hours.

Mcl-1 protein = Mcl-1 protein (Homo sapiens, UniProt Q07820); assay: Inhibition of Mcl-1 by the fluorescence polarisation technique (Method 1 or Method 2); type: binding; conditions: for IC50: fluorescence polarisation, Fluorescein labelled ligand, Method 1 (not underlined) or Method 2 (underlined), read-out: IC50 (μM) Mcl-1 FP; for percentage fluorescence polarisation inhibition, Mcl-1 FP: partial inhibitors, @ 10 μM test compound
Procedure, shortened: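 Binding measured by FP, with Mcl-1 protein and fluorescein-labelled ligand mixed with compounds in an 11-point series at 5% final DMSO. Method 2 used 10 nM each of protein and ligand in phosphate buffer (20 mM Na2HPO4, 1 mM EDTA, 50 mM NaCl, pH 7.4); Method 1 used 5 nM protein, 1 nM ligand in HEPES buffer (10 mM HEPES, 150 mM NaCl, 0.05% Tween 20, pH 7.4).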

Sequence of Mcl-1 protein (Q07820 whole entry): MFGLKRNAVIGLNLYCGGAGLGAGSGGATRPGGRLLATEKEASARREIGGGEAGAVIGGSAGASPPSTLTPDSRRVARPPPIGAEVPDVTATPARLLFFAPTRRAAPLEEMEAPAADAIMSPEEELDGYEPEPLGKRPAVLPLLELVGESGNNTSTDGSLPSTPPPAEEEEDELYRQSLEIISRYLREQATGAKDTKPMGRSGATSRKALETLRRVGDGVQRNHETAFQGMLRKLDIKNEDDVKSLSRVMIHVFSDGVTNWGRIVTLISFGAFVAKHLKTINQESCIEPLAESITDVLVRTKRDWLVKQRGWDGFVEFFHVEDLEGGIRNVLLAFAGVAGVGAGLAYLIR

Compound | PARP fold [1] | IC50 ([2]; Homo sapiens, NCI-H929) [nM] | IC50 (Mcl-1 protein) [µM] | IC50 [2] [nM] | percentage fluorescence polarisation inhibition, Mcl-1 FP (Mcl-1 protein) [% @ 10 μM]
CCOc1nccc(COc2ccccc2CC(Nc2ncnc3sc(-c4ccc(F)o4)c(-c4ccc(OCCN5CCN(C)CC5)c(Cl)c4C)c23)C(=O)O)n1 [Example 22, N-[(5Sa)-5-{3-chloro-2-methyl-4-[2-(4-methylpiperazin-1-yl)ethoxy]phenyl}-6-(5-fluorofuran-2-yl)thieno[2,3-d]pyrimidin-4-yl]-2-[(2-ethoxypyrimidin-4-yl)methoxy]-D-phenylalanine] | 222.2 | 8.59 | 0.002 | – | –
Cc1c(-c2c(-c3ccsc3)sc3ncnc(NC(Cc4ccccn4)C(=O)O)c23)ccc(OCCN2CCOCC2)c1Cl [Example 36, N-[(5Sa)-5-{3-chloro-2-methyl-4-[2-(morpholin-4-yl)ethoxy]phenyl}-6-(thiophen-3-yl)thieno[2,3-d]pyrimidin-4-yl]-3-pyridin-2-yl-D-alanine] | – | > 7500 | 0.086 | – | –
Cc1c(-c2c(-c3ccsc3)sc3ncnc(NC(Cc4ccccc4CN)C(=O)O)c23)ccc(OCCN2CCOCC2)c1Cl [Example 37, 2-(aminomethyl)-N-[(5Ra)-5-{3-chloro-2-methyl-4-[2-(morpholin-4-yl)ethoxy]phenyl}-6-(thiophen-3-yl)thieno[2,3-d]pyrimidin-4-yl]-D-phenylalanine] | – | – | – | > 3750 | 18.7
Cc1c(-c2c(-c3ccsc3)sc3ncnc(NC(Cc4ccccc4CN)C(=O)O)c23)ccc(OCCN2CCOCC2)c1Cl [Example 38, 2-(aminomethyl)-N-[(5Sa)-5-{3-chloro-2-methyl-4-[2-(morpholin-4-yl)ethoxy]phenyl}-6-(thiophen-3-yl)thieno[2,3-d]pyrimidin-4-yl]-D-phenylalanine] | – | > 3750 | 1.87 | – | –
CC#Cc1sc2ncnc(NC(Cc3ccccc3OC)C(=O)O)c2c1-c1ccc(OCCN2CCN(C)CC2)c(Cl)c1C [Example 39, N-[(5Sa)-5-{3-chloro-2-methyl-4-[2-(4-methylpiperazin-1-yl)ethoxy]phenyl}-6-(prop-1-yn-1-yl)thieno[2,3-d]pyrimidin-4-yl]-2-methoxy-D-phenylalanine] | – | 401 | 0.025 | – | –
CC#Cc1sc2ncnc(NC(Cc3ccccc3OCc3ccnn3C(C)(C)C)C(=O)O)c2c1-c1ccc(OCCN2CCN(C)CC2)c(Cl)c1C [Example 40, 2-[(1-tert-butyl-1H-pyrazol-5-yl)methoxy]-N-[(5Sa)-5-{3-chloro-2-methyl-4-[2-(4-methylpiperazin-1-yl)ethoxy]phenyl}-6-(prop-1-yn-1-yl)thieno[2,3-d]pyrimidin-4-yl]-D-phenylalanine] | 114.3 | 32.8 | 0.006 | – | –
CC#Cc1sc2ncnc(NC(Cc3ccccc3OCc3ccnc(CCOC)n3)C(=O)O)c2c1-c1ccc(OCCN2CCN(C)CC2)c(Cl)c1C [Example 41, N-[(5Sa)-5-{3-chloro-2-methyl-4-[2-(4-methylpiperazin-1-yl)ethoxy]phenyl}-6-(prop-1-yn-1-yl)thieno[2,3-d]pyrimidin-4-yl]-2-{[2-(2-methoxyethyl)pyrimidin-4-yl]methoxy}-D-phenylalanine] | – | 7.38 | 0.006 | – | –
CC#Cc1sc2ncnc(NC(Cc3ccccc3OCc3ccnn3CC(F)(F)F)C(=O)O)c2c1-c1ccc(OCCN2CCN(C)CC2)c(Cl)c1C [Example 42, N-[(5Sa)-5-{3-chloro-2-methyl-4-[2-(4-methylpiperazin-1-yl)ethoxy]phenyl}-6-(prop-1-yn-1-yl)thieno[2,3-d]pyrimidin-4-yl]-2-{[1-(2,2,2-trifluoroethyl)-1H-pyrazol-5-yl]methoxy}-D-phenylalanine] | – | 61 | 0.01 | – | –
CC#Cc1sc2ncnc(NC(Cc3ccccc3OCc3ccnc(N4CCOCC4)n3)C(=O)O)c2c1-c1ccc(OCCN2CCN(C)CC2)c(Cl)c1C [Example 43, N-[(5Sa)-5-{3-chloro-2-methyl-4-[2-(4-methylpiperazin-1-yl)ethoxy]phenyl}-6-(prop-1-yn-1-yl)thieno[2,3-d]pyrimidin-4-yl]-2-{[2-(morpholin-4-yl)pyrimidin-4-yl]methoxy}-D-phenylalanine] | 114.6 | 12.5 | 0.006 | – | –
CC#Cc1sc2ncnc(NC(Cc3ccccc3OCc3ccnc(OCC(F)(F)F)n3)C(=O)O)c2c1-c1ccc(OCCN2CCN(C)CC2)c(Cl)c1C [Example 44, N-[(5Sa)-5-{3-chloro-2-methyl-4-[2-(4-methylpiperazin-1-yl)ethoxy]phenyl}-6-(prop-1-yn-1-yl)thieno[2,3-d]pyrimidin-4-yl]-2-{[2-(2,2,2-trifluoroethoxy)pyrimidin-4-yl]methoxy}-D-phenylalanine] | 85.8 | 3.44 | 0.007 | – | –
CC#Cc1sc2ncnc(NC(Cc3ccccc3OCc3ccnn3CC(F)(F)F)C(=O)O)c2c1-c1ccc(OCCN(C)C)c(Cl)c1C [Example 46, N-[(5Sa)-5-{3-chloro-4-[2-(dimethylamino)ethoxy]-2-methylphenyl}-6-(prop-1-yn-1-yl)thieno[2,3-d]pyrimidin-4-yl]-2-{[1-(2,2,2-trifluoroethyl)-1H-pyrazol-5-yl]methoxy}-D-phenylalanine] | – | 166 | 0.024 | – | –
CC#Cc1sc2ncnc(NC(Cc3ccccc3OCc3ccnc(N4CCOCC4)n3)C(=O)O)c2c1-c1ccc(OCCN(C)C)c(Cl)c1C [Example 47, N-[(5Sa)-5-{3-chloro-4-[2-(dimethylamino)ethoxy]-2-methylphenyl}-6-(prop-1-yn-1-yl)thieno[2,3-d]pyrimidin-4-yl]-2-{[2-(morpholin-4-yl)pyrimidin-4-yl]methoxy}-D-phenylalanine] | – | 83.9 | 0.008 | – | –
CC#Cc1sc2ncnc(NC(Cc3ccccc3OCc3ccnc(OCC(F)(F)F)n3)C(=O)O)c2c1-c1ccc(OCCN(C)C)c(Cl)c1C [Example 48, N-[(5Sa)-5-{3-chloro-4-[2-(dimethylamino)ethoxy]-2-methylphenyl}-6-(prop-1-yn-1-yl)thieno[2,3-d]pyrimidin-4-yl]-2-{[2-(2,2,2-trifluoroethoxy)pyrimidin-4-yl]methoxy}-D-phenylalanine] | – | 16.1 | 0.007 | – | –
CC#Cc1sc2ncnc(N[C@H](Cc3ccccc3OCc3ccnc(-c4ccccc4OC)n3)C(=O)O)c2c1-c1ccc(OCCN(C)C)c(Cl)c1C [Example 49, N-[(5Sa)-5-{3-chloro-4-[2-(dimethylamino)ethoxy]-2-methylphenyl}-6-(prop-1-yn-1-yl)thieno[2,3-d]pyrimidin-4-yl]-2-{[2-(2-methoxyphenyl)pyrimidin-4-yl]methoxy}-D-phenylalanine] | 138.8 | – | 0.003 | 4.12 | –
Cc1c(-c2c(-c3ccc(F)cc3)sc3ncnc(NC(Cc4ccccc4OCc4ccnc(-c5ccccc5F)n4)C(=O)O)c23)ccc(OCCN(C)C)c1Cl [Example 50, N-[(5Sa)-5-{3-chloro-4-[2-(dimethylamino)ethoxy]-2-methylphenyl}-6-(4-fluorophenyl)thieno[2,3-d]pyrimidin-4-yl]-2-{[2-(2-fluorophenyl)pyrimidin-4-yl]methoxy}-D-phenylalanine] | – | > 150 | 0.007 | – | –
COCCOc1ccccc1-c1nccc(COc2ccccc2CC(Nc2ncnc3sc(-c4ccc(F)cc4)c(-c4ccc(OCCN(C)C)c(Cl)c4C)c23)C(=O)O)n1 [Example 51, N-[(5Sa)-5-{3-chloro-4-[2-(dimethylamino)ethoxy]-2-methylphenyl}-6-(4-fluorophenyl)thieno[2,3-d]pyrimidin-4-yl]-2-({2-[2-(2-methoxyethoxy)phenyl]pyrimidin-4-yl}methoxy)-D-phenylalanine] | 52.2 | 23.3 | 0.005 | – | –
COC(=O)c1oc(-c2sc3ncnc(NC(Cc4ccccc4OC)C(=O)O)c3c2-c2ccc(OCCN3CCN(C)CC3)c(Cl)c2C)cc1C [Example 65, N-((5Sa)-5-{3-chloro-2-methyl-4-[2-(4-methylpiperazin-1-yl)ethoxy]phenyl}-6-[5-(methoxycarbonyl)-4-methylfuran-2-yl]thieno[2,3-d]pyrimidin-4-yl)-2-methoxy-D-phenylalanine] | – | ≥ 2780 | 0.345 | – | –
COC(=O)c1oc(-c2sc3ncnc(NC(Cc4ccccc4OC)C(=O)O)c3c2-c2ccc(OCCN3CCN(C)CC3)c(Cl)c2C)cc1C [Example 66, N-((5Ra)-5-{3-chloro-2-methyl-4-[2-(4-methylpiperazin-1-yl)ethoxy]phenyl}-6-[5-(methoxycarbonyl)-4-methylfuran-2-yl]thieno[2,3-d]pyrimidin-4-yl)-2-methoxy-D-phenylalanine] | – | – | – | > 3750 | 36.9
COc1ccccc1-c1nccc(COc2ccccc2C[C@@H](Nc2ncnc3sc(-c4ccc(F)cc4)c(-c4c(C)c(Cl)c(OCCN5CCN(C)CC5)c(Cl)c4C)c23)C(=O)O)n1 [Example 270, N-[5-{3,5-dichloro-2,6-dimethyl-4-[2-(4-methylpiperazin-1-yl)ethoxy]phenyl}-6-(4-fluorophenyl)thieno[2,3-d]pyrimidin-4-yl]-2-{[2-(2-methoxyphenyl)pyrimidin-4-yl]methoxy}-D-phenylalanine] | – | 522 | 0.055 | – | –
